T1: CobB (Escherichia coli, UniProt P75960)
T1 construct: recombinant CobB, MBP tag cleaved
T1 sequence (P75960 1-279): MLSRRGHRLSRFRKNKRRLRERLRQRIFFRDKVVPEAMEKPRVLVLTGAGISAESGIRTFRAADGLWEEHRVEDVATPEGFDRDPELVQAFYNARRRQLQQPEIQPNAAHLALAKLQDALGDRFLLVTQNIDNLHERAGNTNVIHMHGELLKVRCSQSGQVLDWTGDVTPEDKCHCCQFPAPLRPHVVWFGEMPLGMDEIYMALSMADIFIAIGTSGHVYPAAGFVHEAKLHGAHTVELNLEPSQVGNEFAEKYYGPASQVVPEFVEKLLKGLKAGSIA

B1: nicotinamidase (PncA) (Escherichia coli K-12) (protein)
chain: MPPRALLLVDLQNDFCAGGALAVPEGDSTVDVANRLIDWCQSRGEAVIASQDWHPANHGSFASQHGVEPYTPGQLDGLPQTFWPDHCVQNSEGAQLHPLLHQKAIAAVFHKGENPLVDSYSAFFDNGRRQKTSLDDWLRDHEIDELIVMGLATDYCVKFTVLDALQLGYKVNVITDGCRGVNIQPQDSAHAFMEMSAAGATLYTLADWEETQG
notes: recombinant His6-tagged nicotinamidase

Assays:
nicotinamidase (PncA) = molecular target: T2, nicotinamidase (PncA) (Escherichia coli, UniProt P21369); assay: activity of purified PncA after […] min incubation with […] inhibitor at […]°C; activity undetectable; format: biochemical
T2 construct: recombinant His6-tagged nicotinamidase

CobB = molecular target: T1, CobB; assay: deacetylation of acetylated Acs by purified CobB at varied NAM and NAD+; Dixon and double-reciprocal plots (Ki approximately […]); format: biochemical
purified protein = substrate: NC(=O)c1cccnc1; assay: purified protein; format: biochemical, Escherichia coli

Row | Molecule | activity of purified PncA after 10 min incubation with 1 mM inhibitor at 37°C; a (nicotinamidase (PncA)) | also measured
1 | N#Cc1cccnc1 [3-pyridinecarbonitrile] | This result confirms PncA inhibition by 3-pyridinecarbonitrile and 3-pyridinecarboxaldehide in vitro. | –
2 | NC(=O)c1cccnc1 [nicotinamide] | – | IC50 (CobB): ~52 µM
3 | O=Cc1cccnc1 [3-pyridinecarboxaldehide] | This result confirms PncA inhibition by 3-pyridinecarbonitrile and 3-pyridinecarboxaldehide in vitro. | –
4 | B1 | – | Km (purified protein): 175 ± 27 µM
